According to US10167266B2, “Sodium channel blockers” (Parion Sciences, Inc., priority 2002, dated 2019):
Values joined by “and” are separate entries in the source; they are usually repeats but may differ in a detail not shown here. Equal entries are not always repeated. Structures can show the parent of a compound that is named as a salt. Values belong to the compound of their own block, whether it stands above or below them.

Key:
[1] = system: sodium channel (ENaC), canine bronchial epithelia; test: Sodium channel blocking activity: inhibition of short circuit current (ISC) in airway epithelial monolayers in Ussing chambers; format: cell-based; details: for Fold potency relative to amiloride: Example 51; for Fold Amiloride*: potency in canine bronchial epithelia relative to amiloride
Protocol: One assay used to assess mechanism of action and/or potency of the compounds of the present invention involves the determination of lumenal drug inhibition of airway epithelial sodium currents measured under short circuit current (ISC) using airway epithelial monolayers mounted in Ussing chambers. Cells obtained from freshly excised human, dog, sheep or rodent airways are seeded onto porous 0.4 micron Snapwell™ Inserts (CoStar), cultured at air-liquid interface (ALI) conditions in hormonally defined media, and assayed for sodium transport activity (ISC) while bathed in Krebs Bicarbonate Ringer (KBR) in Using chambers. All test drug additions are to the lumenal bath with half-log dose addition protocols (from 1×10^−11 M to 3×10^−5 M), and the cumulative change in ISC (inhibition) recorded. All drugs are prepared in dimethyl sulfoxide as stock solutions at a concentration of 1×10^−2 M and stored at −20° C. Eight preparations are typically run in parallel; two preparations per run incorporate amiloride and/or benzamil as positive controls. After the maximal concentration (5×10^−5 M) is administered, the lumenal bath is exchanged three times with fresh drug-free KBR solution, and the resultant ISC measured after each wash for approximately 5 minutes in duration. Reversibility is defined as the percent return to the baseline value for sodium current after the third wash. All data from the voltage clamps are collected via a computer interface and analyzed off-line.
Dose-effect relationships for all compounds are considered and analyzed by the Prism 3.0 program. IC50 values, maximal effective concentrations, and reversibility are calculated and compared to amiloride and benzamil as positive controls.
Amiloride was also tested in this assay as a positive control. The results for the compounds of the present invention are reported as fold-enhancement values relative to amiloride.

melting point: 148 °C (dec.)
SMILES: Cl.N=C(NCCCCc1ccc(OCC(O)C(O)CO)cc1)NC(=O)c1nc(Cl)c(N)nc1N (centres unmarked)

melting point: 212 to 214 °C
SMILES: CC(O)COc1ccc(CCCCNC(=N)NC(=O)c2nc(Cl)c(N)nc2N)cc1 (centres unmarked) (as salt: hydrochloride) [Example 18, 4-[4-(2-Hydroxypropyloxy)phenyl)]butylamidino-3,5-diamino-6-chloropyrazinecarboxamide hydrochloride]

melting point: 110 to 125 °C
SMILES: COCCOCCOc1ccc(CCCCNC(=N)NC(=O)c2nc(Cl)c(N)nc2N)cc1 (as salt: hydrochloride) [drawing 50: n=2, 4-[4-(1,4,7-Trioxaoct-1-yl)phenyl]-butyl amidino-3,5-diamino-6-chloropyrazinecarboxamide hydrochloride]

melting point: 195 to 200 °C
SMILES: N=C(NCCCCc1ccc(N)cc1)NC(=O)c1nc(Cl)c(N)nc1N (as salt: hydrochloride) [drawing 60: R=NH2, N=0, 4-[4-(4-Amino)phenyl)]butylamidino-3,5-diamino-6-chloropyrazinecarboxamide hydrochloride]

melting point: > 178 °C (dec.)
SMILES: N=C(NCCCCc1ccc(OCCN)cc1)NC(=O)c1nc(Cl)c(N)nc1N (as salt: hydrochloride) [drawing 61: R=NH2, n=2, 4-[4-(2-aminoethyloxy)phenyl)butylamidino-3,5-diamino-6-chloropyrazinecarboxamide hydrochloride]

melting point: 91 to 93 °C
SMILES: N=C(NCCCCc1cccc(OCC(O)CO)c1)NC(=O)c1nc(Cl)c(N)nc1N (centres unmarked) (as salt: hydrochloride) [drawing 69: R=CH2OH, Meta, 4-[3-(2-,3-Dihydroxypropyloxyl)phenyl)]butylamidino-3,5-diamino-6-chloropyrazinecarboxamide hydrochloride]

melting point: 200 to 205 °C
SMILES: N=C(NCCCCc1ccccc1OCC(O)CO)NC(=O)c1nc(Cl)c(N)nc1N (centres unmarked) (as salt: hydrochloride) [drawing 69: R=CH2OH, Ortho, 4-[2-(2-,3-Dihydroxypropyloxy)phenyl)]butylamidino-3,5-diamino-6-chloropyrazinecarboxamide hydrochloride]

melting point: 161 to 163 °C (dec.)
SMILES: N=C(NCCCCc1cccc(OCCO)c1)NC(=O)c1nc(Cl)c(N)nc1N (as salt: hydrochloride) [drawing 69: R=H, Meta, 4-[3-(2-Hydroxyethyloxy)phenyl)butylamidino-3,5-diamino-6-chloropyrazinecarboxamide hydrochloride]

melting point: 161 °C
SMILES: N=C(NCCCCc1ccc(OCCOC2CCCCO2)cc1)NC(=O)c1nc(Cl)c(N)nc1N (centres unmarked) [Example 20]

SMILES: N=C(NCCCCc1ccc(N)cc1)NC(=O)c1nc(Cl)c(N)nc1N [drawing 60: R=NH2, N=0, 4-[4-(4-Amino)phenyl)]butylamidino-3,5-diamino-6-chloropyrazinecarboxamide hydrochloride]
Fold potency relative to amiloride [1]: 32.6 ± 2 | Fold Amiloride* ([1]; Example 41): 32.6 ± 2.0 (3) fold | Fold Amiloride* ([1]; Example 43): 32.6 ± 2 (3) fold | Fold Amiloride* ([1]; Example 48): 32.6 ± 2 (3) ^ fold

SMILES: N=C(NCCCCc1ccc(CCO)cc1)NC(=O)c1nc(Cl)c(N)nc1N [drawing 60: R=OH, N=2, 4-(4-(2-Hydroxyethyl)phenyl)butylamidino-3,5-diamino-6-chloropyrazinecarboxamide hydrochloride]
Fold Amiloride* ([1]; Example 41): 79.2 ± 30.6 (4) fold | Fold Amiloride* ([1]; Example 47): 79.2 ± 30.6 (4) fold

SMILES: N=C(NCCCCc1ccc(OCCN)cc1)NC(=O)c1nc(Cl)c(N)nc1N [drawing 61: R=NH2, n=2, 4-[4-(2-aminoethyloxy)phenyl)butylamidino-3,5-diamino-6-chloropyrazinecarboxamide hydrochloride]
Fold potency relative to amiloride [1]: 56.5 ± 0 | Fold Amiloride* ([1]; Example 42, hydrochloride): 60.1 ± 1.3 (2) fold and 56.5 ± 0 (4) ^ fold | Fold Amiloride* ([1]; Example 45): 56.5 ± 24 (4) fold | Fold Amiloride* ([1]; Example 48): 84.9 ± 30.3 (6) fold

SMILES: Cl.NC(=NCCCCc1ccc(OCCO)cc1)NC(=O)c1nc(Cl)c(N)nc1N [drawing 61: R=OH, n=2]
Fold potency relative to amiloride [1]: 84.9 ± 30.3 | Fold Amiloride* ([1]; Example 42): 84.9 ± 30.3 (6) fold | Fold Amiloride* ([1]; Example 47): 84.9 ± 30.3 (6) fold | Fold Amiloride* ([1]; Example 50): 80.3 ± 25.5 (9) fold

SMILES: N=C(NCCCCc1ccc(OCCCO)cc1)NC(=O)c1nc(Cl)c(N)nc1N [drawing 61: R=OH, n=3, 4-[4-(3-Hydroxypropyloxy)phenyl)]butylamidino-3,5-diamino-6-chloropyrazinecarboxamide hydrochloride]
Fold potency relative to amiloride [1]: 105.2 ± 26.6 | Fold Amiloride* ([1]; Example 47): 105.2 ± 26.6 (7) fold

SMILES: Cl.NC(=NCCCCc1ccc(OCCCO)cc1)NC(=O)c1nc(Cl)c(N)nc1N [drawing 61: R=OH, n=3]
Fold Amiloride* ([1]; Example 42): 105.2 ± 26.6 (7) fold

melting point: 140 to 170 °C (dec.)
SMILES: N=C(N)c1ccc(CCCCNC(N)=NC(=O)c2nc(Cl)c(N)nc2N)cc1 [drawing 62: X=C═NH, Y=NH2, 4-{4-[N′-(3,5-Diamino-6-chloropyrazine-2-carbonyl)guanidino]butyl}benzamidine]
Fold Amiloride* ([1]; Example 43): 53.2 ± 19.3 (2) fold

SMILES: N=C(NCCCCc1ccc(C(=O)NCCO)cc1)NC(=O)c1nc(Cl)c(N)nc1N [drawing 62: X=C═O, Y=NH(CH2)2—OH, 4-{4-[N-(3,5-diamino-6-chloropyrazine-2-carbonyl)guanidino]butyl}-N-(2-hydroxyethyl)benzamide hydrochloride]
Fold Amiloride* ([1]; Example 43): 28.5 (1) fold

SMILES: CC(C)(C)OC(=O)NCCOc1ccc(CCCCNC(N)=NC(=O)c2nc(Cl)c(N)nc2N)cc1 [drawing 64: X=NHCO2(CH3)3, [2-(4-{4-[N′-(3,5-Diamino-6-chloropyrazine-2-carbonyl)guanidino]butyl}phenoxy)ethyl]-carbamic acid tert-butyl ester]
Fold Amiloride* ([1]; Example 45): 51.7 ± 10.1 (2) fold | Fold Amiloride* ([1]; Example 49): 51.7 ± 10.1 (2) fold

melting point: 223 to 230 °C
SMILES: Cl.Cl.N=C(N)NCCOc1ccc(CCCCNC(=N)NC(=O)c2nc(Cl)c(N)nc2N)cc1 [drawing 64: X=NH—C(═NH)—NH2, N-(3,5-diamino-6-chloropyrazine-2-carbonyl)-N′-{4-[4-(2-guanidinoethoxy)-phenyl]butyl}guanidine dihydrochloride]
Fold potency relative to amiloride [1]: 98.0 ± 58.5 (18) | Fold Amiloride* ([1]; Example 45): 120.6 ± 60.8 (11) fold

SMILES: N=C(NCCCCc1ccc(OCC(N)=O)cc1)NC(=O)c1nc(Cl)c(N)nc1N [drawing 65: R=—NH2, 2-{4-[N′-(3,5-diamino-6-chloropyrazine-2-carbonyl)guanidino]-4-butylphenoxy}acetamide hydrochloride]
Fold Amiloride* ([1]; Example 46): 48.2 ± 24.1 (7) fold

SMILES: Cl.Cl.N=C(NCCCCc1ccc(OCCNC[C@H](O)[C@H](O)CO)cc1)NC(=O)c1nc(Cl)c(N)nc1N [drawing 67: O CH2 CH2 NH R^a, N-[4-(4-{2-[(2S,3R)-2,3,4-trihydroxybutylamino]ethoxy}phenyl)butyl]-N′-(3,5-diamino-6-chloropyrazine-2-carbonyl)guanidine dihydrochloride]
Fold Amiloride* ([1]; Example 48): 52.9 ± 14.3 (5) fold

SMILES: Cl.Cl.N=C(NCCCCc1ccc(OCCN(C[C@H](O)[C@H](O)CO)C[C@H](O)[C@H](O)CO)cc1)NC(=O)c1nc(Cl)c(N)nc1N [drawing 67: O CH2 CH2 NR R^a,c (r13), N-[4-(4-{2-[bis-((2S,3R)-2,3,4-trihydroxybutyl)amino]ethoxy}phenyl)butyl]-N′-(3,5-diamino-6-chloropyrazine-2-carbonyl)guanidine dihydrochloride]
Fold Amiloride* ([1]; Example 48): 73.2 ± 49.3 (9) fold

SMILES: CCOC(=O)COc1ccc(CCCCNC(N)=NC(=O)c2nc(Cl)c(N)nc2N)cc1 [drawing 68: OCH2CO2ET, (4-{4-[N′-(3,5-Diamino-6-chloropyrazine-2-carbonyl)guanidino]butyl}phenoxy)acetic acid ethyl ester]
Fold Amiloride* ([1]; Example 49): 20 (1) fold

SMILES: N=C(NCCCCc1cccc(OCC(O)CO)c1)NC(=O)c1nc(Cl)c(N)nc1N (centres unmarked) [drawing 69: R=CH2OH, Meta, 4-[3-(2-,3-Dihydroxypropyloxyl)phenyl)]butylamidino-3,5-diamino-6-chloropyrazinecarboxamide hydrochloride]
Fold Amiloride* ([1]; Example 50): 40 (1) fold

SMILES: N=C(NCCCCc1ccccc1OCC(O)CO)NC(=O)c1nc(Cl)c(N)nc1N (centres unmarked) [drawing 69: R=CH2OH, Ortho, 4-[2-(2-,3-Dihydroxypropyloxy)phenyl)]butylamidino-3,5-diamino-6-chloropyrazinecarboxamide hydrochloride]
Fold Amiloride* ([1]; Example 50): 24.0 ± 1.0 (2) fold

SMILES: N=C(NCCCCc1cccc(OCCO)c1)NC(=O)c1nc(Cl)c(N)nc1N [drawing 69: R=H, Meta, 4-[3-(2-Hydroxyethyloxy)phenyl)butylamidino-3,5-diamino-6-chloropyrazinecarboxamide hydrochloride]
Fold Amiloride* ([1]; Example 50): 41.1 ± 8.5 (2) fold
